The values that follow are results of earlier work, collected in article PMC4381587, “A novel PI3K inhibitor PIK-C98 displays potent preclinical activity against multiple myeloma” (Oncotarget, 2014).

Data set [1] has as its system relapsed indolent lymphoma. Details: method as in PMID 24450857, PMID 24450858. The note with it: phase II, single agent; cited from earlier work.
The subject of data set [2] is relapsed chronic lymphocytic leukemia. Set-up: method as in PMID 24450857, PMID 24450858. The note with it: phase II, single agent; cited from earlier work.

`CC[C@H](Nc1ncnc2[nH]cnc12)c1nc2cccc(F)c2c(=O)n1-c1ccccc1` [idelalisib]: the total response rate in data set [1] is recorded as 57%. Further, in data set [2], the overall complete rate was 72%.
